Test results: US20260285850A1, “SUBSTITUTED OXAZOLIDINONES AND IMIDAZOLINONES AS HERBICIDES” (FMC CORPORATION, priority 2023, published 2026)

Legend:
Type in all cases: in vivo
[1] = system: barnyardgrass (Echinochloa crusgalli); test: Test B flooded paddy test, visual plant response rating 0-100; details: 250 g ai/ha, Flood, applied to paddy water, evaluated after 13 days
Outline: (§1)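 Plants were grown to the 2-leaf stage, then pots were flooded to 3 cm above the soil and compound was applied directly to the paddy water, with that depth kept throughout.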

[2] = system: sedge, umbrella (small-flower umbrella sedge, Cyperus difformis); test: as above; details: 250 g ai/ha, Flood, applied to paddy water, evaluated after 13 days
Outline: as §1

[3] = system: ducksalad (Heteranthera limosa); test: as above; details: 250 g ai/ha, Flood, applied to paddy water, evaluated after 13 days
Outline: as §1

rice (Oryza sativa) = test: as above; details: 250 g ai/ha, Flood, applied to paddy water, evaluated after 13 days
Outline: as §1

[4] = system: oat, wild (wild oat, Avena fatua); test: Test A preemergence soil spray, visual injury rating 0-100; details: 10 days
Outline: (§2)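 Directed preemergence spray onto seeded soil or postemergence spray onto 2-10 cm plants (loam plus sand); compound carried in surfactant-containing non-phytotoxic solvent. Injury rated by eye after 10 d greenhouse growth; 0 = no effect, 100 = complete control.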

[5] = system: blackgrass (Alopecurus myosuroides); test: as above; details: 10 days
Outline: as §2

[6] = system: palmer (palmer amaranth, palmer pigweed, Amaranthus palmeri); test: as above; details: 10 days
Outline: as §2

[7] = system: barnyardgrass (Echinochloa crus-galli); test: as above; details: 10 days
Outline: as §2

[8] = system: wheat (Triticum aestivum); test: as above; details: 10 days
Outline: as §2

kochia (Bassia scoparia) [9] = test: as above; details: 10 days
Outline: as §2

corn (Zea mays) [10] = test: as above; details: 10 days
Outline: as §2

[11] = system: ragweed (common ragweed, Ambrosia artemisiifolia); test: as above; details: 10 days
Outline: as §2

[12] = system: green foxtail (Setaria viridis); test: as above; details: 10 days
Outline: as §2

soybean (Glycine max) [13] = test: as above; details: 10 days
Outline: as §2

[14] = system: ryegrass, Italian (italian ryegrass, Lolium multiflorum); test: as above; details: 10 days
Outline: as §2

[15] = system: oat, wild (wild oat, Avena fatua); test: Test A postemergence application, visual injury rating 0-100
Outline: as §2

[16] = system: blackgrass (Alopecurus myosuroides); test: as above
Outline: as §2

[17] = system: palmer (palmer amaranth, palmer pigweed, Amaranthus palmeri); test: as above
Outline: as §2

[18] = system: barnyardgrass (Echinochloa crus-galli); test: as above
Outline: as §2

[19] = system: wheat (Triticum aestivum); test: as above
Outline: as §2

kochia (Bassia scoparia) [20] = test: as above
Outline: as §2

corn (Zea mays) [21] = test: as above
Outline: as §2

[22] = system: ragweed (common ragweed, Ambrosia artemisiifolia); test: as above
Outline: as §2

[23] = system: green foxtail (Setaria viridis); test: as above
Outline: as §2

soybean (Glycine max) [24] = test: as above
Outline: as §2

[25] = system: ryegrass, Italian (italian ryegrass, Lolium multiflorum); test: as above
Outline: as §2

[26] = system: horseweed (Erigeron canadensis); test: as above
Outline: as §2

[27] = 62 g ai/ha, 0 = no effect, 100 = complete control
[28] = 62 g ai/ha, postemergence, 10 days, 0 = no effect, 100 = complete control
[29] = Postemergence, 16 g ai/ha, greenhouse 10 days, 0 no effect, 100 complete control

Structure (SMILES): CC1(C(=O)NC2CC=C(C(=O)O)C2)CN(c2cc(F)cc(Cl)c2)C(=O)O1 (centres unmarked) [Compound 159]
- Plant response rating, Barnyardgrass (0 to 100 scale, 0 is no effect and 100 is complete control) [1]: 95
- Plant response rating, Sedge, Umbrella (0 to 100 scale, 0 is no effect and 100 is complete control) [2]: 100
- Plant response rating, Ducksalad (0 to 100 scale, 0 is no effect and 100 is complete control) [3]: 100
- Plant response rating, Rice (0 to 100 scale, 0 is no effect and 100 is complete control) (rice (Oryza sativa)): 55
- Oat, Wild plant response rating ([4]; 16 g ai/ha, 0 to 100 scale): 0
- Oat, Wild plant response rating (0-100) [4, 27]: 20
- Blackgrass plant response rating ([5]; 16 g ai/ha, 0 to 100 scale): 0
- Blackgrass plant response rating (0-100) [5, 27]: 0
- Pigweed, Palmer plant response rating ([6]; 16 g ai/ha, 0 to 100 scale): 30
- Pigweed, Palmer plant response rating (0-100) [6, 27]: 100
- Barnyardgrass plant response rating ([7]; 16 g ai/ha, 0 to 100 scale): 0
- Barnyardgrass plant response rating (0-100) [7, 27]: 80
- Wheat plant response rating ([8]; 16 g ai/ha, 0 to 100 scale): 50
- Wheat plant response rating (0-100) [8, 27]: 90
- Kochia plant response rating (kochia (Bassia scoparia) [9]; 16 g ai/ha, 0 to 100 scale): 0
- Kochia plant response rating (0-100) (kochia (Bassia scoparia) [9]; [27]): 90
- Corn plant response rating (corn (Zea mays) [10]; 16 g ai/ha, 0 to 100 scale): 20
- Corn plant response rating (0-100) (corn (Zea mays) [10]; [27]): 50
- Ragweed plant response rating ([11]; 16 g ai/ha, 0 to 100 scale): 0
- Ragweed plant response rating (0-100) [11, 27]: 0
- Foxtail, Green plant response rating ([12]; 16 g ai/ha, 0 to 100 scale): 20
- Foxtail, Green plant response rating (0-100) [12, 27]: 100
- Soybean plant response rating (soybean (Glycine max) [13]; 16 g ai/ha, 0 to 100 scale): 0
- Soybean plant response rating (0-100) (soybean (Glycine max) [13]; [27]): 50
- Ryegrass, Italian plant response rating ([14]; 16 g ai/ha, 0 to 100 scale): 30
- Ryegrass, Italian plant response rating (0-100) [14, 27]: 90
- Oat, Wild plant response rating (0-100) [15, 28]: 30
- Oat, Wild plant response rating (0 to 100 scale) [15, 29]: 30
- Blackgrass plant response rating (0-100) [16, 28]: 90
- Blackgrass plant response rating (0 to 100 scale) [16, 29]: 80
- Pigweed, Palmer plant response rating (0-100) [17, 28]: 90
- Pigweed, Palmer plant response rating (0 to 100 scale) [17, 29]: 80
- Barnyardgrass plant response rating (0-100) [18, 28]: 100
- Barnyardgrass plant response rating (0 to 100 scale) [18, 29]: 100
- Wheat plant response rating (0-100) [19, 28]: 90
- Wheat plant response rating (0 to 100 scale) [19, 29]: 30
- Kochia plant response rating (0-100) (kochia (Bassia scoparia) [20]; [28]): 80
- Kochia plant response rating (0 to 100 scale) (kochia (Bassia scoparia) [20]; [29]): 70
- Corn plant response rating (0-100) (corn (Zea mays) [21]; [28]): 100
- Corn plant response rating (0 to 100 scale) (corn (Zea mays) [21]; [29]): 100
- Ragweed plant response rating (0-100) [22, 28]: 70
- Ragweed plant response rating (0 to 100 scale) [22, 29]: 40
- Foxtail, Green plant response rating (0-100) [23, 28]: 90
- Foxtail, Green plant response rating (0 to 100 scale) [23, 29]: 70
- Soybean plant response rating (0-100) (soybean (Glycine max) [24]; [28]): 80
- Soybean plant response rating (0 to 100 scale) (soybean (Glycine max) [24]; [29]): 80
- Ryegrass, Italian plant response rating (0-100) [25, 28]: 100
- Ryegrass, Italian plant response rating (0 to 100 scale) [25, 29]: 60
- Horseweed plant response rating (0-100) [26, 28]: 80
- Horseweed plant response rating (0 to 100 scale) [26, 29]: 50
